Assay results from patent publication US20250263404A1, “AMINOPYRIDINES AS ACTIVATORS OF PI3 KINASE” (UCL Business Ltd, priority 2021, published 2025).

Legend:
[1] = system: 133 protein kinases and 7 lipid kinases; test: SelectScreen kinase profiling panel; assay type: biochemical
Experimental: (§1) 133 protein kinases and 7 lipid kinases were counterscreened, with […] used at 1 μM, using the Adapta, Lantha and Z-LYTE assays (SelectScreen Kinase Profiling Service; Thermofisher—experimental details of these assays can be found here: https://www.thermofisher.com/uk/en/home/industrial/pharma-biopharma/drug-discovery-development/target-and-lead-identification-and-validation/kinasebiology/kinase-activity-assays.html. The tree representation in KinMap generated courtesy of Cell Signaling Technology, Inc. (www.cellsignal.com). mTORC1 (mTOR/RAPTOR/LST8) protein complex and ATM kinase and substrates were produced as previously described (Anandapadamanaban, M. et al. Science (New York, NY 366, 203-210 (2019); Baretic, D. et al. Sci Adv 3, e1700933 (2017). Screening of 1938 was conducted using SuperSep Phos-Tag 50 μmol/l 100×100×6.6 mm 17-well (192-18001/199-18011) gels. For ATM assays, 100 nM ATM was incubated for 30 min at 30° C. with 5 μM GST-p53 and 1 mM ATP, in the absence or presence of 200 μM 1938 in ATM Kinase Buffer (50 mM HEPES pH 7.5, 100 mM NaCl, 10% glycerol, 2 mM […], 5 mM MgCl2). […] Gels were then stained using InstantBlue™ Coomassie stain, and then quantified using BioRad Image Lab Software. […]

[2] = system: pAKT^S473 in MEFs and A549; test: Time course of pAKT S473 induction in MEFs and A549; assay type: cell-based; conditions: 1938 (5 μM)
Excerpt: The inventors next monitored the activation of AKT, the best-known PI3K effector stimulated by PIP3/PI(3,4)P2 production in cells. […] As previously reported, PI3Kα-null MEFs still respond to insulin, but now in a PI3Kβ-dependent manner, as shown by sensitivity of insulin-stimulated pAKT^S473 to the PI3Kβ-selective inhibitor TGX-221 (FIG. 3b). […] Similar observations were made for mTORC1 pathway activation, as measured by S6 (Ser240/44) and 4EBP1 (Ser65) phosphorylation (FIG. 3e). […] Experiments with A549 cells and MEFs were performed separately using slightly different protocols. Briefly, A549 cells were seeded at 200,000 cells per well in 24-well plates in DMEM (10% FBS+1% P/S) and allowed to adhere overnight. The next day, cells were washed once with PBS before addition of serum-free DMEM for 24 h. On the day of treatment, cells were incubated in fresh serum-free DMEM prior to treatment. […]

BRK = BRK (Homo sapiens, UniProt Q13882); test: SelectScreen kinase profiling, BRK; assay type: biochemical; conditions: 1 μM of 1938, 75 μM ATP
BRK, sequence (Q13882 whole entry): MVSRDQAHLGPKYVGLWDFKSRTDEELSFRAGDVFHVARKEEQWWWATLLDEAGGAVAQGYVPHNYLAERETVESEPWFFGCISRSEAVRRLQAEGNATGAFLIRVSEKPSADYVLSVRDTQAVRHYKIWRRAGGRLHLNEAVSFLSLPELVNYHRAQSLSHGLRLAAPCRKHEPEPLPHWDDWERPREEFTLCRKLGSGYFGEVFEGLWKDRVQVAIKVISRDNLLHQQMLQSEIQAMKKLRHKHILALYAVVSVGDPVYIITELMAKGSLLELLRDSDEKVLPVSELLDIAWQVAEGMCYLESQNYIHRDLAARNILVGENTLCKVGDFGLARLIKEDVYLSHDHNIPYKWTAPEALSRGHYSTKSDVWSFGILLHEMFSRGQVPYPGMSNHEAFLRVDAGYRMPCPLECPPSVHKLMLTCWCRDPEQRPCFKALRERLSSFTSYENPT
Experimental: as §1

number of protein kinases inhibited between 25-50% ([1]; 1 μM of 1938): 13
activity of other PI3K isoforms and PI3K-related kinases in the panel ([1]; PI3Kβ, PI3Kγ, PI3Kδ, PI3K-C2α, Vps34, PI4Kβ, mTOR, DNA-PK, 1 μM): did not affect
inhibition of BRK (BRK): 56%
SMILES: CCN1CCN(c2ccc(Nc3cc(Nc4cccc5c4N(C(C)=O)CC5)ccn3)cc2)CC1 [Example 1938]
time of onset of pAKT^S473 induction [2]: 5 min
time of peak pAKT^S473 activation [2]: 30 min
